Results published in ChEMBL document CHEMBL1138148, “Conformational constraint in oxazolidinone antibacterials. Part 2: Synthesis and structure-activity studies of oxa-, aza-, and thiabicyclo[3.1.0]hexylphenyl oxazolidinones” (2006).
Converted amounts (≈) assume the structure as drawn.

How the values were obtained:
Format in all cases: functional
Streptococcus pneumoniae = test: Antibacterial activity against Streptococcus pneumoniae SVI SP-3
Staphylococcus aureus [1] = test: Antibacterial activity against Staphylococcus aureus UC-76 SA-1
Enterococcus faecalis = test: Antibacterial activity against Enterococcus faecalis MGH-2 EF1-1
Haemophilus influenzae = test: Antibacterial activity against Haemophilus influenzae HI3542; conditions: HI-3542
Moraxella catarrhalis = test: Antibacterial activity against Moraxella catarrhalis BC-3531
Staphylococcus aureus [2] = test: In vivo efficacy in mouse infected with Staphylococcus aureus UC 9213 administered po; conditions: UC 9213, po

Row | SMILES | MIC (Streptococcus pneumoniae) | MIC (Staphylococcus aureus [1]) | MIC (Enterococcus faecalis) | MIC (Haemophilus influenzae) | MIC (Moraxella catarrhalis) | ED50 (Staphylococcus aureus [2])
1 | CC(=O)NC[C@H]1CN(c2ccc([C@H]3[C@@H]4CN(c5nnn(C)n5)C[C@@H]43)c(F)c2)C(=O)O1 | 1 µg/mL (≈ 2.41 µM) | 2 µg/mL (≈ 4.81 µM) | 2 µg/mL (≈ 4.81 µM) | 16 µg/mL (≈ 38.5 µM) | 8 µg/mL (≈ 19.3 µM) | 
2 | CC(=O)NC[C@H]1CN(c2ccc([C@H]3[C@@H]4CN(CCF)C[C@@H]43)c(F)c2)C(=O)O1 | 1 µg/mL (≈ 2.64 µM) | 4 µg/mL (≈ 10.5 µM) | 4 µg/mL (≈ 10.5 µM) | 16 µg/mL (≈ 42.2 µM) | 8 µg/mL (≈ 21.1 µM) | 
3 | CC(=O)NCC(=O)N1C[C@@H]2[C@H](C1)[C@H]2c1ccc(N2C[C@H](CNC(C)=O)OC2=O)cc1F | 4 µg/mL (≈ 9.25 µM) | 4 µg/mL (≈ 9.25 µM) | 4 µg/mL (≈ 9.25 µM) | 32 µg/mL (≈ 74 µM) | 32 µg/mL (≈ 74 µM) | 
4 | CC(=O)NC[C@H]1CN(c2ccc([C@H]3[C@@H]4CS(=O)(=O)C[C@@H]43)cc2)C(=O)O1 | 4 µg/mL (≈ 11 µM) | 4 µg/mL (≈ 11 µM) | 8 µg/mL (≈ 22 µM) | 16 µg/mL (≈ 43.9 µM) | 8 µg/mL (≈ 22 µM) | 7.2 mg/kg
5 | O=C(NC[C@H]1CN(c2cc(F)c([C@H]3[C@@H]4CS(=O)(=O)C[C@@H]43)c(F)c2)C(=O)O1)C1CC1 | 1 µg/mL (≈ 2.34 µM) | 2 µg/mL (≈ 4.69 µM) | 2 µg/mL (≈ 4.69 µM) | 8 µg/mL (≈ 18.8 µM) | 4 µg/mL (≈ 9.38 µM) | 
6 | CC(=O)NC[C@H]1CN(c2ccc([C@H]3[C@@H]4CN(C=O)C[C@@H]43)c(F)c2)C(=O)O1 | 1 µg/mL (≈ 2.77 µM) | 2 µg/mL (≈ 5.53 µM) | 2 µg/mL (≈ 5.53 µM) | 8 µg/mL (≈ 22.1 µM) | 8 µg/mL (≈ 22.1 µM) | 
7 | CC(=O)NC[C@H]1CN(c2cc(F)c([C@H]3[C@@H]4COC[C@@H]43)c(F)c2)C(=O)O1 | 4 µg/mL (≈ 11.4 µM) | 8 µg/mL (≈ 22.7 µM) | 8 µg/mL (≈ 22.7 µM) | 32 µg/mL (≈ 90.8 µM) | 8 µg/mL (≈ 22.7 µM) | 
8 | CC(=O)NC[C@H]1CN(c2ccc([C@H]3[C@@H]4CN(CCC#N)C[C@@H]43)c(F)c2)C(=O)O1 | 1 µg/mL (≈ 2.59 µM) | 2 µg/mL (≈ 5.18 µM) | 2 µg/mL (≈ 5.18 µM) | 16 µg/mL (≈ 41.4 µM) | 8 µg/mL (≈ 20.7 µM) | 
9 | CC(=O)NC[C@H]1CN(c2cc(F)c([C@H]3[C@@H]4CS(=O)(=O)C[C@@H]43)c(F)c2)C(=O)O1 | 1 µg/mL (≈ 2.5 µM) | 2 µg/mL (≈ 4.99 µM) | 2 µg/mL (≈ 4.99 µM) | 8 µg/mL (≈ 20 µM) | 4 µg/mL (≈ 9.99 µM) | 3.1 mg/kg
10 | CC(=O)NC[C@H]1CN(c2ccc([C@H]3[C@@H]4CN(C(=O)CC#N)C[C@@H]43)c(F)c2)C(=O)O1 | 1 µg/mL (≈ 2.5 µM) | 1 µg/mL (≈ 2.5 µM) | 1 µg/mL (≈ 2.5 µM) | 8 µg/mL (≈ 20 µM) | 4 µg/mL (≈ 9.99 µM) | 
11 | N#CCC(=O)NC[C@H]1CN(c2cc(F)c([C@H]3[C@@H]4CS(=O)(=O)C[C@@H]43)c(F)c2)C(=O)O1 | 2 µg/mL (≈ 4.7 µM) | 4 µg/mL (≈ 9.4 µM) | 4 µg/mL (≈ 9.4 µM) | 4 µg/mL (≈ 9.4 µM) | 8 µg/mL (≈ 18.8 µM) | 
12 | CC(=O)NC[C@H]1CN(c2ccc([C@H]3[C@@H]4COC[C@@H]43)c(F)c2)C(=O)O1 | 2 µg/mL (≈ 5.98 µM) | 4 µg/mL (≈ 12 µM) | 4 µg/mL (≈ 12 µM) | 8 µg/mL (≈ 23.9 µM) | 4 µg/mL (≈ 12 µM) | 
13 | O=C(CO)NC[C@H]1CN(c2cc(F)c([C@H]3[C@@H]4CS(=O)(=O)C[C@@H]43)c(F)c2)C(=O)O1 | 2 µg/mL (≈ 4.8 µM) | 4 µg/mL (≈ 9.61 µM) | 4 µg/mL (≈ 9.61 µM) | 8 µg/mL (≈ 19.2 µM) | 8 µg/mL (≈ 19.2 µM) | 
14 | CC(=O)NC[C@H]1CN(c2ccc([C@H]3[C@@H]4CNC[C@@H]43)c(F)c2)C(=O)O1 | 2 µg/mL (≈ 6 µM) | 8 µg/mL (≈ 24 µM) | 16 µg/mL (≈ 48 µM) | 32 µg/mL (≈ 96 µM) | 8 µg/mL (≈ 24 µM) | 
15 | CC(=O)NC[C@H]1CN(c2ccc([C@H]3[C@@H]4CN(CCO)C[C@@H]43)c(F)c2)C(=O)O1 | 0.5 µg/mL (≈ 1.32 µM) | 4 µg/mL (≈ 10.6 µM) | 8 µg/mL (≈ 21.2 µM) | 8 µg/mL (≈ 21.2 µM) | 8 µg/mL (≈ 21.2 µM) | 
16 | CC(F)(F)C(=O)NC[C@H]1CN(c2ccc([C@H]3[C@@H]4CS(=O)(=O)C[C@@H]43)c(F)c2)C(=O)O1 | 2 µg/mL (≈ 4.63 µM) | 8 µg/mL (≈ 18.5 µM) | 8 µg/mL (≈ 18.5 µM) | 16 µg/mL (≈ 37 µM) | 8 µg/mL (≈ 18.5 µM) | 
17 | CC(=O)NC[C@H]1CN(c2ccc([C@H]3[C@@H]4CN(C(=N)N)C[C@@H]43)c(F)c2)C(=O)O1 | 4 µg/mL (≈ 10.7 µM) | 64 µg/mL (≈ 170 µM) | 64 µg/mL (≈ 170 µM) | 64 µg/mL (≈ 170 µM) | 16 µg/mL (≈ 42.6 µM) | 
18 | O=C(NC[C@H]1CN(c2ccc([C@H]3[C@@H]4CS(=O)(=O)C[C@@H]43)c(F)c2)C(=O)O1)C1CCC1 | 2 µg/mL (≈ 4.73 µM) | 8 µg/mL (≈ 18.9 µM) | 8 µg/mL (≈ 18.9 µM) | 32 µg/mL (≈ 75.7 µM) | 32 µg/mL (≈ 75.7 µM) | 
19 | CC(=O)NC[C@H]1CN(c2ccc(N3CCOCC3)c(F)c2)C(=O)O1 [LINEZOLID] |  |  |  | 16 µg/mL (≈ 47.4 µM) | 8 µg/mL (≈ 23.7 µM) | 
